Assay results taken from the NIST ThermoML archive (doi:10.1016/j.fluid.2005.06.010).

Experiment: xn = mol fraction of the nth substance listed
Details: Fluid (supercritical or subcritical phases), Vibrating tube method

c1ccc2ccccc2c1 [naphthalene] + O=C=O
Details	mass density [kg/m3]
332.95 K, 23003 kPa, x1 = 0.0049	772.24
332.95 K, 24035 kPa, x1 = 0.0049	783.38
332.96 K, 13066 kPa, x1 = 0.0093	562.4
332.96 K, 14010 kPa, x1 = 0.0093	607.19
332.96 K, 14033 kPa, x1 = 0.0144	623.67
332.96 K, 15035 kPa, x1 = 0.0144	657.01
332.96 K, 15044 kPa, x1 = 0.0093	643.85
332.96 K, 15076 kPa, x1 = 0.0173	670.77
332.96 K, 16046 kPa, x1 = 0.0093	671.79
332.96 K, 16056 kPa, x1 = 0.0144	683.98
332.96 K, 16081 kPa, x1 = 0.0173	695.5
332.96 K, 17019 kPa, x1 = 0.0144	704.86
332.96 K, 17024 kPa, x1 = 0.0173	714.84
332.96 K, 17026 kPa, x1 = 0.0093	694.34
332.96 K, 17996 kPa, x1 = 0.0173	731.97
332.96 K, 18009 kPa, x1 = 0.0093	713.47
332.96 K, 18013 kPa, x1 = 0.0144	723.3
332.96 K, 18019 kPa, x1 = 0.0235	741.5
332.96 K, 19018 kPa, x1 = 0.0235	756.06
332.96 K, 19028 kPa, x1 = 0.0144	739.71
332.96 K, 19030 kPa, x1 = 0.0093	730.7
332.96 K, 19068 kPa, x1 = 0.0173	748.38
332.96 K, 19996 kPa, x1 = 0.0173	761.05
332.96 K, 20018 kPa, x1 = 0.0144	753.83
332.96 K, 20030 kPa, x1 = 0.0093	745.57
332.96 K, 20031 kPa, x1 = 0.0235	769.21
332.96 K, 20990 kPa, x1 = 0.0144	766.28
332.96 K, 21000 kPa, x1 = 0.0235	780.59
332.96 K, 21004 kPa, x1 = 0.0093	758.59
332.96 K, 21018 kPa, x1 = 0.0173	773.69
332.96 K, 21972 kPa, x1 = 0.0235	791.04
332.96 K, 21996 kPa, x1 = 0.0173	784.65
332.96 K, 22030 kPa, x1 = 0.0144	778.43
332.96 K, 22033 kPa, x1 = 0.0093	771.07
332.96 K, 22991 kPa, x1 = 0.0173	794.89
332.96 K, 22996 kPa, x1 = 0.0235	801.19
332.96 K, 23002 kPa, x1 = 0.0093	781.81
332.96 K, 23017 kPa, x1 = 0.0144	789
332.96 K, 23986 kPa, x1 = 0.0235	810.27
332.96 K, 23990 kPa, x1 = 0.0093	791.9
332.96 K, 23999 kPa, x1 = 0.0144	798.72
332.96 K, 24019 kPa, x1 = 0.0173	804.7
332.96 K, 24677 kPa, x1 = 0.0173	810.61
332.96 K, 24809 kPa, x1 = 0.0235	817.39
332.96 K, 24940 kPa, x1 = 0.0144	807.41
333 K, 12451 kPa, x1 = 0.0065	503.55
333 K, 13033 kPa, x1 = 0.0065	540.53
333 K, 13760 kPa, x1 = 0.0065	578.33
333 K, 14541 kPa, x1 = 0.0065	610.99
333 K, 15426 kPa, x1 = 0.0065	640.78
333 K, 16333 kPa, x1 = 0.0065	665.58
333 K, 17231 kPa, x1 = 0.0065	686.41
333 K, 18146 kPa, x1 = 0.0065	704.71
333 K, 19018 kPa, x1 = 0.0065	720.04
333 K, 20017 kPa, x1 = 0.0065	735.62
333 K, 21002 kPa, x1 = 0.0065	749.43
333 K, 22012 kPa, x1 = 0.0065	762.16
333 K, 23025 kPa, x1 = 0.0065	773.85
333 K, 24004 kPa, x1 = 0.0065	784.3
333 K, 25022 kPa, x1 = 0.0065	794.34
333.02 K, 12620 kPa, x1 = 0.0038	505.57
333.02 K, 12810 kPa, x1 = 0.0038	517.8
333.02 K, 12997 kPa, x1 = 0.0038	529.34
333.02 K, 13183 kPa, x1 = 0.0038	540.11
333.02 K, 13406 kPa, x1 = 0.0038	552.35
333.02 K, 13640 kPa, x1 = 0.0038	564.51
333.02 K, 13893 kPa, x1 = 0.0038	576.62
333.02 K, 14134 kPa, x1 = 0.0038	587.16
333.02 K, 14390 kPa, x1 = 0.0038	597.75
333.02 K, 14768 kPa, x1 = 0.0038	612.29
333.02 K, 15159 kPa, x1 = 0.0038	625.81
333.02 K, 15535 kPa, x1 = 0.0038	637.78
333.02 K, 16027 kPa, x1 = 0.0038	652.03
333.02 K, 16469 kPa, x1 = 0.0038	663.57
333.02 K, 17018 kPa, x1 = 0.0038	676.71
333.02 K, 17622 kPa, x1 = 0.0038	689.78
333.02 K, 18197 kPa, x1 = 0.0038	701.13
333.02 K, 18835 kPa, x1 = 0.0038	712.75
333.02 K, 19606 kPa, x1 = 0.0038	725.55
333.02 K, 20350 kPa, x1 = 0.0038	736.76
333.02 K, 21107 kPa, x1 = 0.0038	747.32
333.02 K, 22018 kPa, x1 = 0.0038	758.99
333.02 K, 22977 kPa, x1 = 0.0038	770.32
333.02 K, 23992 kPa, x1 = 0.0038	781.31
333.02 K, 25039 kPa, x1 = 0.0038	791.79
